Laboratory results published in patent US20180230182A1, “HYPERPOLARIZATION OF AMINO ACID RESIDUES FOR PRODUCING HYPERPOLARIZED PEPTIDES” (Cedars-Sinai Medical Center, priority 2017, published 2018).

Experiment: 13C hyperpolarization by Para Hydrogen Induced Polarization (PHIP) with Goldman RF transfer sequence
Type: physicochemical
Conditions: non-deuterated, natural abundance 13C
Description: Our objective was to test a model system of polarization that can be incorporated into peptide sequence. Dehydroalanine is an unnatural amino acid with a methylene group instead of the normal methyl side chain for alanine. Several publications laid out the framework on synthesizing peptides containing this reactive amino acid side chain double bond. (Okeley N M, Zhu Y, van der Donk W A. Facile Chemoselective Synthesis of Dehydroalanine-Containing Peptides†. Organic Letters. 2000; 2(23):3603-6). The double bond of dehydroalanine is ideally positioned for PHIP to generate a polarized ^13C carboxyl nucleus with the resulting product an alanine amino acid residue. We utilized a purchased chemical equivalent resembling dehydroalanine in a peptide chain with the terminal carboxyl and amine protected by functional groups (FIG. 1). […] The 3JHH scalar coupling (J) constant was kept at 7.47 Hz, the 3JHH value was determined by proton spectroscopy. All measured samples were combined and lyophilized to dryness, then and dissolved in 2.5 mL of diH2O and scanned (^13C spectroscopy) for 17 hours with a repetition time of 50 seconds. […]

SMILES: C=C(NC(C)=O)C(=O)OC [MAA, methyl 2-acetamidoacrylate]
- polarization reached with the best set of scalar coupling constants (13C carboxyl carbon of the alanine product after 3 second para-hydrogenation of 24 mM MAA in deuterium oxide, 1.4 mT PHIP instrument): 0.1±0.07%
- maximum polarization from the best sequence (approximated from the Boltzmann thermal equilibrium signal, 13C spectroscopy at 9.4T): ~0.2%
